Experimental data published in PMC4581723, “Evaluation of In Vitro Activity of the Class I PI3K Inhibitor Buparlisib (BKM120) in Pediatric Bone and Soft Tissue Sarcomas” (PLoS ONE, 2015).
pIC50: −log10 of the molar value. Read-outs that look alike come from different tables or passages of the source.

Tests used:
HOS = assay: Cell viability assay (MTT), 72 h; format: cell-based; conditions: Homo sapiens, HOS (OS), read-out: GDC-0941 cell viability IC50
A204 = assay: Cell viability assay (MTT), 72 h; format: cell-based; conditions: Homo sapiens, A204 (RMS), read-out: GDC-0941 cell viability IC50
RD = assay: Cell viability assay (MTT), 72 h; format: cell-based; conditions: Homo sapiens, RD (RMS), read-out: GDC-0941 cell viability IC50
TC-174 = assay: Cell viability assay (MTT), 72 h; format: cell-based; conditions: TC-174 (ES), read-out: GDC-0941 cell viability IC50
SJSA = assay: Cell viability assay (MTT), 72 h; format: cell-based; conditions: SJSA (OS), read-out: GDC-0941 cell viability IC50
KHOS = assay: Cell viability assay (MTT), 72 h; format: cell-based; conditions: KHOS (OS), read-out: GDC-0941 cell viability IC50
A4573 = assay: Cell viability assay (MTT), 72 h; format: cell-based; conditions: A4573 (ES), read-out: GDC-0941 cell viability IC50
osteosarcoma [1] = conditions: cited from earlier work
osteosarcoma [2] = tested on: osteosarcoma; set-up: method as in PMID 24961790, PMID 24333720; conditions: cited from earlier work
[3] = tested on: pediatric tumor cell lines; set-up: method as in PMID 23002019; conditions: panel of pediatric tumor cell lines, including sarcomas; read-out: median relative IC50; cited from earlier work
[4] = tested on: chronic lymphocytic leukemia; conditions: cited from earlier work
TC-32 = assay: Cell viability assay (MTT), 72 h; format: cell-based; conditions: TC-32 cells
[5] = tested on: bone and soft-tissue sarcomas; set-up: method as in PMID 23477833; conditions: combination with the mTOR inhibitor temsirolimus; phase II; patients with bone and soft-tissue sarcomas; cited from earlier work

**Q.** With `CS(=O)(=O)N1CCN(Cc2cc3nc(-c4cccc5[nH]ncc45)nc(N4CCOCC4)c3s2)CC1` [GDC-0941, pictilisib] as the compound, how does the pIC50 (HOS) read?
**A.** 6.79

**Q.** What about the pIC50 (A204) of the same compound?
**A.** 7.57

**Q.** And the pIC50 (RD)?
**A.** 6.56

**Q.** What about the pIC50 (TC-174) of the same compound?
**A.** 6.77

**Q.** What about the pIC50 (SJSA) of the same compound?
**A.** 6.53

**Q.** What about the pIC50 (KHOS) of the same compound?
**A.** 5.92

**Q.** What about the pIC50 (A4573) of the same compound?
**A.** 6.42

**Q.** Which “tumor growth in vivo” value (osteosarcoma [1]) does the source give for `Cn1c(=O)n(-c2ccc(C(C)(C)C#N)cc2)c2c3cc(-c4cnc5ccccc5c4)ccc3ncc21` [NVP-BEZ235] here?
**A.** inhibited

**Q.** And the “in vitro cellular proliferation” value (osteosarcoma [2])?
**A.** inhibited

**Q.** With `COc1ccc(Cl)c(Nc2nc3ccccc3nc2NS(=O)(=O)c2cccc(NC(=O)C(C)(C)N)c2)c1` [SAR245408] as the compound, how does the pIC50 [3] read?
**A.** 4.96

**Q.** With `CC[C@H](Nc1ncnc2[nH]cnc12)c1nc2cccc(F)c2c(=O)n1-c1ccccc1` [idelalisib] as the compound, how does the overall response rate ([4]; combined with rituximab) read?
**A.** 81%

**Q.** What about the overall response rate ([4]; single agent) of the same compound?
**A.** 72%

**Q.** Which “cytotoxicity as single agent” value (TC-32) does the source give for `CC(=O)Nc1cccc(-n2c(=O)n(C3CC3)c(=O)c3c(Nc4ccc(I)cc4F)n(C)c(=O)c(C)c32)c1` [tramenitib, trametinib] here?
**A.** no tramenitib cytotoxicity was observed

**Q.** For “cixutmumuab: IGF1R antibody, evaluated in combination with the mTOR inhibitor temsirolimus”, which response rate [5] is on record?
**A.** 15%

**Q.** For `Cc1nc(NC(=O)N2CCC[C@H]2C(N)=O)sc1-c1ccnc(C(C)(C)C(F)(F)F)c1` [NVP-BYL719], which “tumor growth in vivo” value (osteosarcoma [1]) is on record?
**A.** inhibited

**Q.** What about the tumor growth (osteosarcoma [1]; combined with the chemotherapeutic agent ifosfamide) of the same compound?
**A.** synergistically inhibited tumor growth

**Q.** And the “in vitro cellular proliferation” value (osteosarcoma [2])?
**A.** inhibited
